Data taken from ChEMBL document CHEMBL6134863, “Novel Mitochondria-Targeted Asymmetric Heptamethine Cyanine Dye for Cancer Targeted NIR Imaging and Potent Necrosis and Senescence Induction with Prolonged Retention” (J Med Chem, 2025).
Active and inactive are the calls of the source. No cut-off for these calls is given here.

Assays:
[1] = Drug uptake in human NCI-H226 cells assessed as increase in red fluorescence intensity at 5 uM incubated for 30 mins by CY7 staining based microscopic analysis; format: ADME, cell-based; settings: nci-h226, 0.5 h
4T1 = assay: Antitumor activity against mouse 4T1 cells implanted in BALB/c mouse assessed as tumor growth inhibition 5 mg/kg, iv measured for 11 days; format: functional; settings: 4T1, 264 h, time 11 day, read-out: TGI
[2] = Antioxidant activity of compound in presence of SO4; format: functional
[3] = Partition coefficient, logP of compound; format: physicochemical; settings: octanol/water
[4] = Stability of compound in DMSO-H2O incubated for 150 mins by absorbance based analysis; format: physicochemical; settings: 2.5 h
[5] = Antioxidant activity of compound in presence of ClO-; format: functional
[6] = Drug uptake in mouse 4T1 cells assessed as increase in red fluorescence intensity at 5 uM incubated for 30 mins by CY7 staining based microscopic analysis; format: ADME, cell-based; settings: 4t1, 0.5 h
[7] = Antioxidant activity of compound in presence of Cl-; format: functional
[8] = Antioxidant activity of compound in presence of HCHO; format: functional
[9] = Drug accumulation in BALB/c mouse tumor xenografted with human NCI-H520 cells assessed as increase in fluorescence intensity at 0.5 mg/kg, iv measured at 96 hrs by imaging based analysis; format: ADME, organism-based, Neoplasm; settings: in vivo
[10] = Antioxidant activity of compound in presence of NO2; format: functional
[11] = Antioxidant activity of compound in presence of NH4+; format: functional
[12] = Antioxidant activity of compound in presence of HSO3-; format: functional
[13] = Drug uptake in mouse 4T1 cells assessed as increase in green fluorescence intensity at 5 uM incubated for 30 mins by F-actin staining staining based microscopic analysis; format: ADME, cell-based; settings: 4t1, 0.5 h
[14] = Antioxidant activity of compound in presence of CO3; format: functional
[15] = Antioxidant activity of compound in presence of HCO3-; format: functional
[16] = Distribution coefficient, logD of compound; format: physicochemical; settings: octanol/water
[17] = Cytotoxicity against human Primary lung fibroblast assessed as decrease in cell viability up to 10 uM incubated for 24 hrs by CCK-8 assay; format: toxicity, cell-based
[18] = Antioxidant activity of compound in presence of Ca2+; format: functional
[19] = Drug accumulation in tumor to muscle of BALB/c mouse implanted with mouse 4T1 cells at 0.5 mg/kg, iv measured at 4 to 168 hrs; format: ADME, organism-based; settings: in vivo, time 4-168 hrs
[20] = Antioxidant activity of compound in presence of H2O2-; format: functional
[21] = Stability of compound in DMSO-H2O incubated for 1 hr by absorbance based analysis; format: physicochemical
[22] = Antioxidant activity of compound in presence of L-Cysteine; format: functional
[23] = Antioxidant activity of compound in presence of RNS; format: functional
[24] = Antioxidant activity of compound in presence of Glutathione; format: functional
[25] = Antioxidant activity of compound in presence of Fe3+; format: functional
[26] = Ratio of drug level in tumor to muscle of BALB/c mouse implanted with mouse 4T1 cells at 0.5 mg/kg, iv measured at 12 to 24 hrs; format: ADME, organism-based; settings: in vivo, time 12-24 hrs
NCI-H250 = assay: Antitumor activity against human […] cells xenografted in BALB/c mouse assessed as tumor growth inhibition 0.5 mg/kg, iv measured for 5 days; format: functional, organism-based; settings: time 5.0 day
[27] = Toxicity in BALB/c mouse implanted with mouse 4T1 cells assessed as survival rate at 5 mg/kg, iv measured for 11 days; format: organism-based; settings: in vivo, time 11 day
[28] = Antioxidant activity of compound in presence of TBHP; format: functional
[29] = Antioxidant activity of compound in presence of […]; format: functional
[30] = Drug uptake in human NCI-H226 cells assessed as increase in green fluorescence intensity at 5 uM incubated for 30 mins by F-actin staining staining based microscopic analysis; format: ADME, cell-based; settings: nci-h226, 0.5 h
[31] = Solubility of compound in DMSO-H2O; format: physicochemical
NIH3T3 = assay: Cytotoxicity against mouse 3T3 cells assessed as decrease in cell viability up to 5 uM incubated for 24 hrs by CCK-8 assay; format: toxicity, cell-based; settings: nih3t3, 24 h
NCI-H226 = assay: Cytotoxicity against human NCI-H226 assessed as decrease in cell viability up to 10 uM incubated for 24 hrs by CCK-8 assay; format: functional, cell-based
[32] = Cytotoxicity against human Primary lung fibroblast assessed as decrease in cell viability up to 5 uM incubated for 24 hrs by CCK-8 assay; format: toxicity, cell-based
[33] = Photostability of compound in DMSO-H2O incubated for 1 hr irradiated with deuterium lamp by absorbance based analysis; format: physicochemical; settings: read-out: Stability
[34] = Antioxidant activity of compound in presence of Br-; format: functional
[35] = Drug localization in mitochondria of human NCI-H226 cell by MitoTracker Red based NIR confocal microscopic analysis; format: ADME
[36] = Antioxidant activity of compound in presence of ROS; format: functional
[37] = Drug accumulation in BALB/c mouse tumor implanted with mouse 4T1 cells assessed as increase in fluorescence intensity at 0.5 mg/kg, iv measured at 48 hrs by imaging based analysis; format: ADME, organism-based, Neoplasm; settings: in vivo
[38] = Antioxidant activity of compound in presence of RSS; format: functional
[39] = Drug uptake in human NCI-H226 cells assessed as increase in fluorescence intensity incubated for 24 hrs by fluorescence based microscopic analysis; format: ADME, cell-based; settings: nci-h226, 24 h
[40] = Antioxidant activity of compound in presence of ONOO-; format: functional
[41] = Antioxidant activity of compound in presence of OH; format: functional

CCN1/C(=C/C=C2\CCCC(/C=C/C3=[N+](CCCOc4ccc(C(=O)O)cc4)c4ccccc4C3(C)C)=C2Cl)C(C)(C)c2ccccc21.[Br-]
Drug uptake [1]: Active
inhibition in vivo at 5 mg/kg (4T1): ~60%
Activity [2]: Active
logP [3]: 6.05
Stability [4]: Stable
Activity [5]: Active
Drug uptake [6]: Active
Activity [7]: Active
Activity [8]: Active
Drug uptake [9]: Active
Activity [10]: Active
Activity [11]: Active
Activity [12]: Active
Drug uptake [13]: Active
Activity [14]: Active
Activity [15]: Active
logD [16]: 4.34
Activity [17]: Non-toxic
Activity [18]: Active
Drug uptake [19]: Active
Activity [20]: Active
Stability [21]: Stable
Activity [22]: Active
Activity [23]: Active
Activity [24]: Active
Activity [25]: Active
Ratio [26]: > 5
TGI (NCI-H250): Active
survival at 264 h [27]: 100%
Activity [28]: Active
Activity [29]: Active
Drug uptake [30]: Active
solubility [31]: 170 µg/mL
Activity (NIH3T3): > 80%
Activity (NCI-H226): Active
Activity [32]: Non-toxic
remaining at 1 h [33]: 96.9%
Activity [34]: Active
Drug uptake [35]: Active
Activity [36]: Active
Drug uptake [37]: Active
Activity [38]: Active
Drug uptake [39]: Active
Activity [40]: Active
Activity [41]: Active

CCCN1/C(=C/C=C2\CCCC(/C=C/C3=[N+](CCCOc4ccc(C(=O)O)cc4)c4ccccc4C3(C)C)=C2Cl)C(C)(C)c2ccccc21.[Br-]
Drug uptake [1]: Not_active
Activity [2]: Active
logP [3]: 6.21
Stability [4]: Stable
Activity [5]: Active
Drug uptake [6]: Not_active
Activity [7]: Active
Activity [8]: Active
Drug uptake [9]: Active
Activity [10]: Active
Activity [11]: Active
Activity [12]: Active
Drug uptake [13]: Not_active
Activity [14]: Active
Activity [15]: Active
logD [16]: 4.63
Activity [17]: Non-toxic
Activity [18]: Active
Drug uptake [19]: Active
Activity [20]: Active
Activity [22]: Active
Activity [23]: Active
Activity [24]: Active
Activity [25]: Active
Ratio [26]: > 5
TGI (NCI-H250): Active
Activity [28]: Active
Activity [29]: Active
Drug uptake [30]: Not_active
solubility [31]: 170 µg/mL
Activity (NIH3T3): > 80%
Activity (NCI-H226): Active
Activity [32]: Non-toxic
remaining at 1 h [33]: 89.4%
Activity [34]: Active
Drug uptake [35]: Active
Activity [36]: Active
Activity [38]: Active
Drug uptake [39]: Active
Activity [40]: Active
Activity [41]: Active
